Experimental data as given in patent US6150385A, “1,3,4-thiadiazoles useful for the treatment of CMV infections” (Pharmacia & Upjohn Company, priority 1999, dated 2000).

molecular target: T1, HCMV polymerase (Human cytomegalovirus, UniProt P08546); test: HCMV polymerase assay (scintillation proximity assay); type: biochemical; conditions: percentage of inhibition at 25 μM concentration in CMV polymerase assay
T1 construct: made in house; host or cells: SF-9 insect cells infected with recombinant baculovirus
T1 sequence (P08546 whole entry): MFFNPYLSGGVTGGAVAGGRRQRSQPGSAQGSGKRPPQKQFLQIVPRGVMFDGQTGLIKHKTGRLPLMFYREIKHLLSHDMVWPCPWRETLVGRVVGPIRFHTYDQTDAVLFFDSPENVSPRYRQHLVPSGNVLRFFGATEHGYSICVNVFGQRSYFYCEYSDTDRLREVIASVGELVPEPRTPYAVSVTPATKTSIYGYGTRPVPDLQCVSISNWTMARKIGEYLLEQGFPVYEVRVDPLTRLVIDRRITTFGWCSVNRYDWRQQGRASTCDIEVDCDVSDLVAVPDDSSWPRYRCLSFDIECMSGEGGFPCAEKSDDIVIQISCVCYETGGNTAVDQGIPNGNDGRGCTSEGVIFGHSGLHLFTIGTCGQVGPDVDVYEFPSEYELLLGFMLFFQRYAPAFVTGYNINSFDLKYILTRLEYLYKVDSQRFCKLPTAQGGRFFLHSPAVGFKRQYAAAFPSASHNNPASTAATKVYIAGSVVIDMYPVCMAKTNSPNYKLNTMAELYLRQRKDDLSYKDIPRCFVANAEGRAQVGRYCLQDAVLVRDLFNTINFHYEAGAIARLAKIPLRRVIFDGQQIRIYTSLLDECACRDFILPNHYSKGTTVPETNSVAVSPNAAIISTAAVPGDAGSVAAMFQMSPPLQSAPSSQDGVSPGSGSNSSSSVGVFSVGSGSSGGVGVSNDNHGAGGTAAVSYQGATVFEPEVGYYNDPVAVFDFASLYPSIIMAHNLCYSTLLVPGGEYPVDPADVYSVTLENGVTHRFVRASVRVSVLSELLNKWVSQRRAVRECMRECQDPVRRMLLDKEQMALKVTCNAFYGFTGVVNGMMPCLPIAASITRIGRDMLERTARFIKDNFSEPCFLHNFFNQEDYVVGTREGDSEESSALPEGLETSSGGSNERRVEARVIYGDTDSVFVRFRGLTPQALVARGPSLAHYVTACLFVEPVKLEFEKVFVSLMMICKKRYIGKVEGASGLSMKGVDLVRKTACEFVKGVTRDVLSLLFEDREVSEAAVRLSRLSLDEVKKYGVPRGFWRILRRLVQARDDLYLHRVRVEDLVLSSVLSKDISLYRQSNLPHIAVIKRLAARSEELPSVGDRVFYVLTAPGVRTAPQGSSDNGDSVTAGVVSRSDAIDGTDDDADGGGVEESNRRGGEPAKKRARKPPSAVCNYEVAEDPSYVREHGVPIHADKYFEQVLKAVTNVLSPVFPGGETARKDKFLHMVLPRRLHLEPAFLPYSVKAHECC
In short: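 Baculovirus/SF-9-expressed HCMV polymerase in 5.4 mM HEPES pH 7.5, 11.7 mM KCl, 4.5 mM MgCl2, 0.36 mg/ml BSA, 90 nM 3H-dTTP, with or without 2 mM CHAPS. Started with 6 nM biotinylated poly(dA)-oligo(dT), 30 min at 25 or 37 °C, EDTA-stopped, read by streptavidin-SPA counting; % inhibition at 25 μM.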

Q: With CCCCCCCC/C=C/CCCCCCCC(=O)Nc1nnc(NCc2ccc(OC)c(OC)c2)s1 [compound 100, (E)-N-{5-[(3,4-dimethoxybenzyl)amino]-1,3,4-thiadiazol-2-yl}-9-octadecenamide] as the molecule, how does the inhibition at 25 µM read?
A: 65.1%

Q: With O=C(Nc1nnc(NCc2cccc3ccccc23)s1)c1c(Cl)cccc1Cl [compound 101, 2,6-dichloro-N-{5-[(1-naphthylmethyl)amino]-1,3,4-thiadiazol-2-yl}benzamide] as the molecule, how does the inhibition at 25 µM read?
A: 65%

Q: N#Cc1ccc(C(=O)Nc2nnc(NCCc3cccs3)s2)cc1 [compound 102, 4-cyano-N-(5-{[2-(2-thienyl)ethyl]amino}-1,3,4-thiadiazol-2-yl)benzamide] was tested. Which inhibition at 25 µM did it give?
A: 64.9%

Q: Which inhibition at 25 µM does the source give for N#Cc1ccc(C(=O)Nc2nnc(NC3CCCCCC3)s2)cc1 [compound 103, 4-cyano-N-[5-(cycloheptylamino)-1,3,4-thiadiazol-2-yl]benzamide] here?
A: 64.9%

Q: With O=C(Nc1nnc(NC2CCCCCC2)s1)c1ccc([N+](=O)[O-])o1 [compound 104, N-[5-(cycloheptylamino)-1,3,4-thiadiazol-2-yl]-5-nitro-2-furamide] as the molecule, how does the inhibition at 25 µM read?
A: 64.7%

Q: How did the inhibition at 25 µM turn out when CCCCCCCC/C=C/CCCCCCCC(=O)Nc1nnc(NCCc2ccccc2)s1 [compound 105, (E)-N-[5-(phenethylamino)-1,3,4-thiadiazol-2-yl]-9-octadecenamide] was run?
A: 64.6%

Q: Which inhibition at 25 µM does the source give for CCCCCCCCCCCNc1nnc(NC(=O)CCCCCl)s1 [compound 106, 5-chloro-N-[5-(undecylamino)-1,3,4-thiadiazol-2-yl]pentanamide] here?
A: 64.2%

Q: Which inhibition at 25 µM does the source give for CCCCCCCC/C=C/CCCCCCCC(=O)Nc1nnc(NC2CCCc3ccccc32)s1 (stereo not shown) [compound 107, (E)-N-[5-(1,2,3,4-tetrahydro-1-naphthalenylamino)-1,3,4-thiadiazol-2-yl]-9-octadecenamide] here?
A: 63.8%

Q: CCCCCCCC/C=C/CCCCCCCC(=O)Nc1nnc(NCCCCc2ccccc2)s1 [compound 108, (E)-N-{5-[(4-phenylbutyl)amino]-1,3,4-thiadiazol-2-yl}-9-octadecenamide] was tested. Which inhibition at 25 µM did it give?
A: 63.5%

Q: For CC(C)c1cc(C(C)C)c(C(=O)Nc2nnc(NCCC3CCCN3C)s2)c(C(C)C)c1 (stereo not shown) [compound 109, 2,4,6-triisopropyl-N-(5-{[2-(1-methyl-2-pyrrolidinyl)ethyl]amino]-1,3,4-thiadiazol-2-yl)benzamide], which inhibition at 25 µM is on record?
A: 63.4%

Q: How did the inhibition at 25 µM turn out when O=C(/C=C/c1ccccc1Cl)Nc1nnc(NC2CCN(Cc3ccccc3)CC2)s1 [compound 110, (E)-N-{5-[(1-benzyl-4-piperidinyl)amino]-1,3,4-thiadiazol-2-yl}-3-(2-chlorophenyl)-2-propenamide] was run?
A: 62.9%

Q: Which “% Inhib” value does the source give for O=C(Nc1nnc(NCC(c2ccccc2)c2ccccc2)s1)c1ccc(S(=O)(=O)F)cc1 [compound 111, 4-[({5-[(2,2-diphenylethyl)amino]-1,3,4-thiadiazol-2-yl}amino)carbonyl]benzenesulfonyl fluoride] here?
A: 62.6%

Q: How did the inhibition at 25 µM turn out when O=C(Nc1nnc(NCCCNC2CCCCC2)s1)c1ccc(C(F)(F)F)cc1 [compound 112, N-(5-{[3-(cyclohexylamino)propyl]amino}-1,3,4-thiadiazol-2-yl)-4-(trifluoromethyl)benzamide] was run?
A: 62.5%

Q: For CCCCCCCC/C=C/CCCCCCCC(=O)Nc1nnc(NCC2CC2)s1 [compound 113, (E)-N-{5-[(cyclopropylmethyl)amino]-1,3,4-thiadiazol-2-yl}-9-octadecenamide], which inhibition at 25 µM is on record?
A: 62.2%

Q: Which inhibition at 25 µM does the source give for O=C(/C=C/c1ccccc1)Nc1nnc(NCCSc2ccccc2)s1 [compound 114, (E)-3-phenyl-N-(5-{[2-(phenylsulfanyl)ethyl]amino}-1,3,4-thiadiazol-2-yl)-2-propenamide] here?
A: 62.1%

Q: For O=C(Nc1nnc(NC2CCc3ccccc32)s1)c1c(Cl)cccc1Cl (stereo not shown) [compound 115, 2,6-dichloro-N-[5-(2,3-dihydro-1H-inden-1-ylamino)-1,3,4-thiadiazol-2-yl]benzamide], which inhibition at 25 µM is on record?
A: 62%

Q: How did the inhibition at 25 µM turn out when CCCCC(CC)CNc1nnc(NC(=O)c2ccc3c(c2)C(=O)OC3=O)s1 (stereo not shown) [compound 116, N-{5-[(2-ethylhexyl)amino]-1,3,4-thiadiazol-2-yl}-1,3-dioxo-1,3-dihydro-2-benzofuran-5-carboxamide] was run?
A: 61.9%

Q: Which inhibition at 25 µM does the source give for O=C(/C=C/c1ccccc1Cl)Nc1nnc(NCc2ccc3c(c2)OCO3)s1 [compound 117, (E)-N-{5-[(1,3-benzodioxol-5-ylmethyl)amino]-1,3,4-thiadiazol-2-yl}-3-(2-chlorophenyl)-2-propenamide] here?
A: 61.5%

Q: With O=C(Nc1nnc(NCc2cccs2)s1)c1c(Cl)cccc1Cl [compound 118, 2,6-dichloro-N-{5-[(2-thienylmetyl)amino]-1,3,4-thiadiazol-2-yl}benzamide] as the molecule, how does the inhibition at 25 µM read?
A: 61.2%

Q: CCCCCCCC/C=C/CCCCCCCC(=O)Nc1nnc(NCc2cccc3ccccc23)s1 [compound 119, (E)-N-{5-[(1-naphthylmethyl)amino]-1,3,4-thiadiazol-2-yl}-9-octadecenamide] was tested. Which inhibition at 25 µM did it give?
A: 60.6%

Q: How did the inhibition at 25 µM turn out when CC(C)(C)OC(=O)CCNc1nnc(NC(=O)/C=C/c2ccccc2)s1 [compound 120, tert-butyl 3-[(5-{[(E)-3-phenyl-2-propenoyl]amino}-1,3,4-thiadiazol-2-yl)amino]propanoate] was run?
A: 60%

Q: With CCCCCCCCCCCNc1nnc(NC(=O)c2ccc(F)cc2F)s1 [compound 121, 2,4-difluoro-N-[5-(undecylamino)-1,3,4-thiadiazol-2-yl]benzamide] as the molecule, how does the inhibition at 25 µM read?
A: 60%

Q: Which inhibition at 25 µM does the source give for CCOc1ccc2ccccc2c1C(=O)Nc1nnc(NCc2ccc(OC)c(OC)c2)s1 [compound 122, N-{5-[(3,4-dimethoxybenzyl)amino]-1,3,4-thiadiazol-2-yl}-2-ethoxy-1-naphthamide] here?
A: 59.5%

Q: CCCCCCCC/C=C/CCCCCCCC(=O)Nc1nnc(NCCNC(C)=O)s1 [compound 123, (E)-N-(5-{[2-(acetylamino)ethyl]amino}-1,3,4-thiadiazol-2-yl)-9-octadecenamide] was tested. Which inhibition at 25 µM did it give?
A: 59.2%

Q: For O=C(/C=C/c1ccccc1)Nc1nnc(NCCCNC2CCCCC2)s1 [compound 124, (E)-N-(5-{[3-(cyclohexylamino)propyl]amino}-1,3,4-thiadiazol-2-yl)-3-phenyl-2-propenamide], which inhibition at 25 µM is on record?
A: 59.2%

Q: NS(=O)(=O)c1ccc(CCNc2nnc(NC(=O)/C=C/c3ccccc3Cl)s2)cc1 [compound 125, (E)-N-(5-{[4-(aminosulfonyl)phenethyl]amino}-1,3,4-thiadizol-2-yl)-3-(2-chlorophenyl)-2-propenamide] was tested. Which inhibition at 25 µM did it give?
A: 58.9%

Q: For O=C(Nc1nnc(NCCCNC2CCCCC2)s1)c1ccc([N+](=O)[O-])o1 [compound 126, N-(5-{[3-(cyclohexylamino)propyl]amino}-1,3,4-thiadiazol-2-yl)-5-nitro-2-furamide], which inhibition at 25 µM is on record?
A: 58.9%

Q: How did the inhibition at 25 µM turn out when N#Cc1ccc(C(=O)Nc2nnc(NCCCNC3CCCCC3)s2)cc1 [compound 127] was run?
A: 58.5%

Q: CC(C)c1cc(C(C)C)c(C(=O)Nc2nnc(NCCc3ccc(S(N)(=O)=O)cc3)s2)c(C(C)C)c1 [compound 128, N-(5-{[4-(aminosulfonyl)phenethyl]amino}1,3,4-thiadiazol-2-yl)-2,4,6-triisopropylbenzamide] was tested. Which inhibition at 25 µM did it give?
A: 58.3%

Q: Which inhibition at 25 µM does the source give for CCCCCCCC/C=C/CCCCCCCC(=O)Nc1nnc(NCCSCC)s1 [compound 129, (E)-N-(5-{[2-(ethylsulfanyl)ethyl]amino}1,3,4-thiadiazol-2-yl)-9-octadecenamide] here?
A: 58.3%

Q: Which inhibition at 25 µM does the source give for O=C(/C=C/c1ccccc1)Nc1nnc(NCCCN2CCCC2=O)s1 [compound 130, (E)-N-(5-{[3-(2-oxo-1-pyrrolidinyl)propyl]amino}-1,3,4-thiadiazol-2-yl)-3-phenyl-2-propenamide] here?
A: 58.2%

Q: Which inhibition at 25 µM does the source give for O=C(Nc1nnc(NCCCCc2ccccc2)s1)c1ccc([N+](=O)[O-])o1 [compound 131, 5-nitro-N-{5-[(4-phenylbutyl)amino]-1,3,4-thiadiazol-2-yl}-2-furamide] here?
A: 58%

Q: CCOC(=O)N1CCC(Nc2nnc(NC(=O)c3c(Cl)cccc3Cl)s2)CC1 [compound 132, ethyl 4-({5-[(2,6-dichlorobenzoyl)amino]-1,3,4-thiadiazol-2-yl}amino)tetrahydro-1(2H)-pyridinecarboxylate] was tested. Which inhibition at 25 µM did it give?
A: 57%

Q: For O=C(/C=C/c1ccccc1)Nc1nnc(NCCCn2ccnc2)s1 [compound 133, (E)-N-(5-{[3-(1H-imidazol-1-yl)propyl]amino}-1,3,4-thiadiazol-2-yl)-3-phenyl-2-propenamide], which inhibition at 25 µM is on record?
A: 57%

Q: With COc1ccc(CNc2nnc(NC(=O)c3ccc(I)cc3)s2)cc1OC [compound 134, N-{5-[(3,4-dimethoxybenzyl)amino]-1,3,4-thiadiazol-2-yl}-4-iodobenzamide] as the molecule, how does the inhibition at 25 µM read?
A: 56.9%

Q: Which inhibition at 25 µM does the source give for O=C(Nc1nnc(NCCCN2CCCC2=O)s1)c1cccc([N+](=O)[O-])c1 [compound 135, 3-nitro-N-(5-{[3-(2-oxo-1-pyrrolidinyl)propyl]amino}-1,3,4-thiadiazol-2-yl)benzamide] here?
A: 56.6%

Q: With CCOc1ccc2ccccc2c1C(=O)Nc1nnc(NCc2cccc3ccccc23)s1 [compound 136, 2-ethoxy-N-{5-[(1-naphthylmethyl)amino]-1,3,4-thiadiazol-2-yl}-1-naphthamide] as the molecule, how does the inhibition at 25 µM read?
A: 56.5%

Q: Which inhibition at 25 µM does the source give for O=C(Nc1nnc(NCCCNC2CCCCC2)s1)c1cccc([N+](=O)[O-])c1 [compound 137, N-(5-{[3-(cyclohexylamino)propyl]amino}-1,3,4-thiadiazol-2-yl)-3-nitrobenzamide] here?
A: 56.4%

Q: For O=C(Nc1nnc(NCCCCc2ccccc2)s1)c1ccc(C(F)(F)F)cc1 [compound 138, N-{5-[(4-phenylbutyl)amino]-1,3,4-thiadiazol-2-yl}-4-(trifluoromethyl)benzamide], which inhibition at 25 µM is on record?
A: 56.2%

Q: For O=C(/C=C/c1ccccc1)Nc1nnc(NCc2ccccn2)s1 [compound 139, (E)-3-phenyl-N-{5-[(2-pyridinylmethyl)amino]-1,3,4-thiadiazol-2-yl}-2-propenamide], which inhibition at 25 µM is on record?
A: 56.2%
